Assays:
BRD9 = biological target: T1, BRD9 (Homo sapiens, UniProt Q9H8M2); assay: SPR (Biacore T200, NiHC1500M chip); type: binding
T1 construct: bromodomain
T1 sequence (Q9H8M2 134-240 limits assumed): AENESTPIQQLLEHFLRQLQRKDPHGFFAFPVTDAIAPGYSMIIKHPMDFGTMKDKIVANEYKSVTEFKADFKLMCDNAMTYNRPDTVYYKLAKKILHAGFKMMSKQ

BPTF = biological target: T2, BPTF (Homo sapiens, UniProt Q12830); assay: SPR (Biacore T200, NiHC1500M chip); type: binding
T2 construct: bromodomain

CRBN = biological target: T3, CRBN (Homo sapiens, UniProt Q96SW2); assay: co-IP of BPTF with CRBN in 8d-treated Huh7 cells; pomalidomide rescue; N-methyl glutarimide control […] inactive; type: cell-based
T3 construct: with BPTF
T3 sequence (Q96SW2 whole entry, other chains not shown): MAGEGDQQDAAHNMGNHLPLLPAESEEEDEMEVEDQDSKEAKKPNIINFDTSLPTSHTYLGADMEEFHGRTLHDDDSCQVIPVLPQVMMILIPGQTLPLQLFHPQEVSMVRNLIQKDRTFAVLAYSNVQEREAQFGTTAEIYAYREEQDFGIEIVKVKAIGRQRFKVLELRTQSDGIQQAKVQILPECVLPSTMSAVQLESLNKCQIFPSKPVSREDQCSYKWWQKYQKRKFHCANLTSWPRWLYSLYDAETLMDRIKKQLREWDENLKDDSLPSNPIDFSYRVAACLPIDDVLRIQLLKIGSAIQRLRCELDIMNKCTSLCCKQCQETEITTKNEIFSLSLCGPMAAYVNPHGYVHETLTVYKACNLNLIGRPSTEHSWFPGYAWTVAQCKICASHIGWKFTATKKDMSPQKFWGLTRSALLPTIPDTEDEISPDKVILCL

CECR2 = biological target: T4, CECR2 (Homo sapiens, UniProt Q9BXF3); assay: SPR positive control (Figure S7D); type: binding
T4 construct: bromodomain
T4 sequence (Q9BXF3 434-538 limits assumed): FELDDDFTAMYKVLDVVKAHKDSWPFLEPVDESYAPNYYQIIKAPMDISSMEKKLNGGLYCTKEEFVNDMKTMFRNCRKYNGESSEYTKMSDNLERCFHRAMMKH

Row | Kd (BRD9) [µM] | Kd (BPTF) [µM] | Structure (SMILES) | co-IP of BPTF with CRBN in 8d-treated Huh7 cells; pomalidomide rescue; N-methyl (CRBN) | CECR2 bromodomain binding affinity (CECR2)
1 | 28.8 | 0.563 | CS(=O)(=O)c1nc(NCCCn2cccn2)cc(-c2ccc(NCc3cn(CCOCCOCCOCCOCCOCCNc4cccc5c4C(=O)N(C4CCC(=O)NC4=O)C5=O)nn3)cc2)n1 (stereo not shown) [8d, 4-((17-(4-(((4-(6-((3-(1H-pyrazol-1-yl)propyl)amino)-2-(methylsulfonyl)pyrimidin-4-yl)phenyl)amino)methyl)-1H-1,2,3-triazol-1-yl)-3,6,9,12,15 pentaoxaheptadecyl)amino)-2-(2,6-dioxopiperidin-3-yl) isoindoline-1,3-dione] | through direct recruitment of CRBN, 8d facilitates the proteasome-dependent selective degradation of BPTF | 
2 |  |  | CN(C)CCCOc1ccc(-c2cc(NCCCn3cccn3)nc(S(C)(=O)=O)n2)cc1 [TP238] |  | minimal affinity for the CECR2 bromodomain (Figure S7D), which is known to strongly bind to TP238 as a positive control

Reference: publication PMC11997503, “A BPTF-specific PROTAC degrader enhances NK cell-based cancer immunotherapy” (Molecular Therapy, 2025)
